# Results reported in patent US9826761B2, “Compositions and methods for mitigating dietary sulfur in animals” (SarTec Corporation, priority 2008, dated 2017).
# Key:
# [1] = Precipitating activity: rumen fluid containing manganese compound titrated with 1.0M Na2S, silver/sulfide electrode; set-up: species or system Holstein cows; conditions: 200 mM MnO(II) in rumen fluid
# Method: Next, 0.28 g of MnO(II) was placed in a 100 ml beaker and 20 ml of rumen fluid was added. Then 0.17 g of MnO2(IV) was placed in 100 ml beaker and 20 ml of rumen fluid was added. Each of these compositions, in addition to a rumen fluid control, was then titrated with a 1.0M solution of Na2S. The progress of the reaction was followed using the same silver/sulfide electrode set-up described above (Orion, Ion Plus Silver/Sulfide 9616BNWP).
# [2] = Titration of approx. 200 mM sulfide in fresh rumen fluid with 1 M metal chloride, silver/sulfide electrode; set-up: species or system Holstein cows; conditions: for mVolts (Negative Value): ~200 mM sulfide, fresh rumen fluid
# Method: Fresh undiluted rumen fluid was obtained from rumen fistulated Holstein cows. 1.5 ml of a saturated solution of Na2S in water (approximately 2.7 M) was added to 18.5 ml of the rumen fluid. Sodium sulfide solutions were quantified by titration using a silver/sulfide electrode (Orion, Ion Plus Silver/Sulfide 9616BNWP) and a commercial lead standard (0.1 M Pb^2+, Orion 948206). The final concentration for sulfide ion in the rumen fluid was approximately 200 mM. This solution was then titrated with a 1 M solution of MnCl2 in water. The progress of the reaction was followed using the silver/sulfide electrode.
# Fresh undiluted rumen fluid was obtained from rumen fistulated Holstein cows. 1.5 ml of saturated solution of Na2S in water (approximately 2.7 M) was added to 18.5 ml of the rumen fluid. The final concentration of sulfide ion in the rumen fluid was approximately 200 mM. This solution was then titrated with a 1 M solution of FeCl2 in water. The progress of the reaction was followed using the same silver/sulfide electrode set-up described above (Orion, Ion Plus Silver/Sulfide 9616BNWP).
# Data taken from Examples 1 and 2 above were plotted together in order to gauge the relative efficacy of MnCl2 versus FeCl2 in removing sulfide ion from rumen fluid.
compound,measurement,setting,value
[O]=[Mn] [MnO(II)],mVolts,[1]; Vol 1M Na2S 0.0,604.6 mVolts
same,mVolts,[1]; Vol 1M Na2S 0.1,674.0 mVolts
same,mVolts,[1]; Vol 1M Na2S 0.2,702.9 mVolts
same,mVolts,[1]; Vol 1M Na2S 0.4,724.5 mVolts
same,mVolts,[1]; Vol 1M Na2S 0.5,745.7 mVolts
same,mVolts,[1]; Vol 1M Na2S 0.6,760.6 mVolts
same,mVolts,[1]; Vol 1M Na2S 0.7,777.3 mVolts
same,mVolts,[1]; Vol 1M Na2S 0.8,789.8 mVolts
same,mVolts,[1]; Vol 1M Na2S 0.9,803.7 mVolts
same,mVolts,[1]; Vol 1M Na2S 1.0,803.9 mVolts
same,mVolts,[1]; Vol 1M Na2S 1.1,825.2 mVolts
same,mVolts,[1]; Vol 1M Na2S 1.3,833.7 mVolts
same,mVolts,[1]; Vol 1M Na2S 1.4,843.1 mVolts
same,mVolts,[1]; Vol 1M Na2S 1.5,848.0 mVolts
same,mVolts,[1]; Vol 1M Na2S 1.6,852.1 mVolts
"[Cl][Fe][Cl] [FeCl2, iron (II) chloride]",concentration of sulfide ion within the rumen fluid,[2]; addition of 1 M titrant to ~200 mM sulfide in fresh rumen fluid,effective to reduce the concentration of sulfide ion
same,"total sulfide ion concentrations in the rumen fluid, FeCl2 versus MnCl2",[2]; data of Examples 1 and 2 plotted together (FIG. 3),lower total sulfide ion concentrations
same,mVolts (Negative Value),[2]; titrant volume 0.0 of 1M FeCl2,937.5 mVolts
same,mVolts (Negative Value),[2]; titrant volume 0.1 of 1M FeCl2,937.5 mVolts
same,mVolts (Negative Value),[2]; titrant volume 0.4 of 1M FeCl2,935.1 mVolts
same,mVolts (Negative Value),[2]; titrant volume 0.6 of 1M FeCl2,906.2 mVolts
same,mVolts (Negative Value),[2]; titrant volume 0.8 of 1M FeCl2,926.7 mVolts
same,mVolts (Negative Value),[2]; titrant volume 1.0 of 1M FeCl2,916.9 mVolts
same,mVolts (Negative Value),[2]; titrant volume 1.3 of 1M FeCl2,905.8 mVolts
same,mVolts (Negative Value),[2]; titrant volume 1.5 of 1M FeCl2,886.6 mVolts
same,mVolts (Negative Value),[2]; titrant volume 1.7 of 1M FeCl2,869.4 mVolts
same,mVolts (Negative Value),[2]; titrant volume 1.9 of 1M FeCl2,849.4 mVolts
same,mVolts (Negative Value),[2]; titrant volume 2.1 of 1M FeCl2,833.9 mVolts
same,mVolts (Negative Value),[2]; titrant volume 2.4 of 1M FeCl2,817.3 mVolts
same,mVolts (Negative Value),[2]; titrant volume 2.6 of 1M FeCl2,816.8 mVolts
same,mVolts (Negative Value),[2]; titrant volume 2.8 of 1M FeCl2,767.2 mVolts
same,mVolts (Negative Value),[2]; titrant volume 3.0 of 1M FeCl2,735.5 mVolts
same,mVolts (Negative Value),[2]; titrant volume 3.5 of 1M FeCl2,634.0 mVolts
same,mVolts (Negative Value),[2]; titrant volume 3.7 of 1M FeCl2,622.8 mVolts
same,mVolts (Negative Value),[2]; titrant volume 3.9 of 1M FeCl2,616.3 mVolts
same,mVolts (Negative Value),[2]; titrant volume 4.1 of 1M FeCl2,610.8 mVolts
same,mVolts (Negative Value),[2]; titrant volume 4.3 of 1M FeCl2,607.2 mVolts
same,mVolts (Negative Value),[2]; titrant volume 4.5 of 1M FeCl2,603.3 mVolts
same,mVolts (Negative Value),[2]; titrant volume 4.8 of 1M FeCl2,600.0 mVolts
same,mVolts (Negative Value),[2]; titrant volume 5.0 of 1M FeCl2,595.7 mVolts
same,mVolts (Negative Value),[2]; titrant volume 5.5 of 1M FeCl2,590.0 mVolts
same,mVolts (Negative Value),[2]; titrant volume 6.0 of 1M FeCl2,586.5 mVolts
